Reference: patent US8168747B2, “On-growth inhibiting compounds” (Viogard AB, priority 2002, dated 2012)
“Also recorded” adds a separate entry of the source.

Columns and labels:
B. improvisus [1] = experiment: Larval bioassay: settlement and mortality of barnacle cyprids; format: in vivo, Balanus improvisus
Experimental: (§1) The brood stock of adult barnacles (B. improvisus, Darwin 1854) were allowed to settle on plexiglass panels in the sea on a raft outside Tjärnö Marine Biological Laboratory (58° 53′ N, 11° 8′ E). Cleaned from epiphytes they were brought to the laboratory and immediately placed in trays with running seawater (salinity […]). When regularly fed, with nauplii of Artemia salina, B. improvisus will spawn throughout the year. For larval rearing we used the method according to Berntsson et al., described in “Reduction of barnacle recruitment on micro-textured surfaces: Analysis of effective topographic characteristics and evaluation of skin friction”, Biofouling 16, 245-261. The experiment for the evaluation of the effect on settlement and mortality was performed using polystyrene Petri dishes (Ø48 mm) to which 10 ml of the peptide dissolved to different concentrations in filtered seawater (0.2 μm, 32±1%) was added. Competent cyprids (20±2 ind.) were added to each dish in four replicates and dishes with filtered seawater served as controls. Dishes were maintained for 3-4 days in room temperature after which they were examined under a stereo microscope for attached and metamorphosed individuals and also, for dead cyprids.
Results are reported as means±standard error and using 1-factor analysis of variance (ANOVA).

B. improvisus [2] = experiment: Reversibility test: cyprids moved to fresh seawater; format: in vivo, Balanus improvisus; conditions: cyprids from 2.5 μM moved to fresh sea water; five days
Experimental: as §1
Half of the number of cyprids in each petri dish incubated at the highest tested concentration, 2.5 μM, were moved to a petri dish containing 10 ml of fresh seawater. […]

Helicoverpa punctigera = conditions: feeding trial, cited from earlier work

| Substance | settlement (B. improvisus [1]; 0.0025 μM (lowest tested concentration), 3-4 days, control 67±3%) | settlement (B. improvisus [1]; 0.025 μM, 3-4 days) | inhibition of settlement (B. improvisus [1]; 0.25 μM, 3-4 days) | mortality compared to the control (B. improvisus [1]; all tested concentrations up to 2.5 μM, control saltwater only) | mortality in reversibility test (B. improvisus [2]) | mortality of insect larvae (Helicoverpa punctigera; over time) | growth and development of the insect larvae (Helicoverpa punctigera) |
| --- | --- | --- | --- | --- | --- | --- | --- |
| cyclo(VWIPCISSAIGCSCKSKVCYRNGIPCGESC) (head-to-tail cyclic) [cycloviolacin O2] | 68±3% | 21±0.5% | complete inhibition of settlement; also recorded: complete inhibition of fouling | No one of the tested concentrations showed an increase in mortality; also recorded: No increase in mortality could be detected | No increase in mortality was observed |  |  |
| kalata B1: cyclotide with potent insecticidal activities reported by Jennings and coworkers (cyclo(GLPVCGETCVGGTCNTPGCTCSWPVCTRN); not fully specified (bridges); cysteine pairing not given here; UniProt P56254 89-117, looked up) |  |  |  |  |  | increase in mortality over time | greatly affected |
